{"source": "patent US12077503B2", "about": "“Substituted cyclic amides and their use as herbicides” (FMC CORPORATION, priority 2015, dated 2024)", "type_in_all_cases": "in vivo", "key": {"[1]": {"test_system": "Kochia (Kochia scoparia)", "experiment": "Test A preemergence", "conditions": "Bassia scoparia, pre-emergence, 240 h, 0 to 100 scale where 0 is no effect and 100 is complete control, read-out: Kochia plant response rating", "summary_of_the_method": "(§1)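 Visual injury, scored on a 0–100 scale relative to untreated controls, was recorded about 10 d after application. Treatments were a preemergence soil spray over planted seeds or a postemergence spray on plants at the one- to two-leaf stage, 2 to 10 cm tall, all in loam soil–sand blend in the greenhouse.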"}, "[2]": {"test_system": "barnyardgrass (Echinochloa crus-galli)", "experiment": "Test A preemergence", "conditions": "Echinochloa crus-galli, pre-emergence, 240 h, 0 to 100 scale where 0 is no effect and 100 is complete control, read-out: Barnyardgrass plant response rating", "summary_of_the_method": "as §1"}, "[3]": {"test_system": "giant foxtail (Setaria faberii)", "experiment": "Test A preemergence", "conditions": "Setaria faberi, pre-emergence, 240 h, 0 to 100 scale where 0 is no effect and 100 is complete control, read-out: Foxtail, Giant plant response rating", "summary_of_the_method": "as §1"}, "[4]": {"test_system": "pigweed (Amaranthus retroflexus)", "experiment": "Test A preemergence", "conditions": "Amaranthus retroflexus, pre-emergence, 240 h, 0 to 100 scale where 0 is no effect and 100 is complete control, read-out: Pigweed plant response rating"}, "[5]": {"test_system": "ragweed (common ragweed, Ambrosia elatior)", "experiment": "Test A preemergence", "conditions": "Ambrosia artemisiifolia, pre-emergence, 240 h, 0 to 100 scale where 0 is no effect and 100 is complete control, read-out: Ragweed plant response rating", "summary_of_the_method": "as §1"}, "[6]": {"test_system": "ryegrass, Italian (Italian ryegrass, Lolium multiflorum)", "experiment": "Test A preemergence", "conditions": "Lolium multiflorum, pre-emergence, 240 h, 0 to 100 scale where 0 is no effect and 100 is complete control, read-out: Ryegrass, Italian plant response rating", "summary_of_the_method": "as §1"}, "[7]": {"test_system": "Galium (catchweed bedstraw, Galium aparine)", "experiment": "Test A postemergence", "conditions": "Galium, post-emergence, 240 h", "summary_of_the_method": "as §1"}, "[8]": {"test_system": "Kochia (Kochia scoparia)", "experiment": "Test A postemergence", "conditions": "Bassia scoparia, post-emergence, 240 h", "summary_of_the_method": "as §1"}, "[9]": {"test_system": "barnyardgrass (Echinochloa crus-galli)", "experiment": "Test A postemergence", "conditions": "Echinochloa crus-galli, post-emergence, 240 h", "summary_of_the_method": "as §1"}, "[10]": {"test_system": "blackgrass (Alopecurus myosuroides)", "experiment": "Test A postemergence", "conditions": "Alopecurus myosuroides, post-emergence, 240 h", "summary_of_the_method": "as §1"}, "[11]": {"test_system": "corn (Zea mays)", "experiment": "Test A postemergence", "conditions": "Zea mays, post-emergence, 240 h", "summary_of_the_method": "as §1"}, "[12]": {"test_system": "giant foxtail (Setaria faberii)", "experiment": "Test A postemergence", "conditions": "Setaria faberi, post-emergence, 240 h", "summary_of_the_method": "as §1"}, "[13]": {"test_system": "pigweed (Amaranthus retroflexus)", "experiment": "Test A postemergence", "conditions": "Amaranthus retroflexus, post-emergence, 240 h, 125 g ai/ha, postemergence, visual injury vs untreated controls after approx. 10 d; 0 = no effect, 100 = complete control; read-out: Pigweed plant response rating (0 to 100 scale)", "summary_of_the_method": "as §1"}, "[14]": {"test_system": "ragweed (common ragweed, Ambrosia elatior)", "experiment": "Test A postemergence", "conditions": "Ambrosia artemisiifolia, post-emergence, 240 h, 125 g ai/ha, postemergence, visual injury vs untreated controls after approx. 10 d; 0 = no effect, 100 = complete control; read-out: Ragweed plant response rating (0 to 100 scale)", "summary_of_the_method": "as §1"}, "[15]": {"test_system": "ryegrass, Italian (Italian ryegrass, Lolium multiflorum)", "experiment": "Test A postemergence", "conditions": "Lolium multiflorum, post-emergence, 240 h, 125 g ai/ha, postemergence, visual injury vs untreated controls after approx. 10 d; 0 = no effect, 100 = complete control; read-out: Ryegrass, Italian plant response rating (0 to 100 scale)", "summary_of_the_method": "as §1"}, "[16]": {"test_system": "wheat (Triticum aestivum)", "experiment": "Test A postemergence", "conditions": "Triticum aestivum, post-emergence, 240 h, 125 g ai/ha, postemergence, visual injury vs untreated controls after approx. 10 d; 0 = no effect, 100 = complete control; read-out: Wheat plant response rating (0 to 100 scale)", "summary_of_the_method": "as §1"}, "[17]": {"test_system": "barnyardgrass (Echinochloa crus-galli)", "experiment": "Test B flooded paddy test", "conditions": "Echinochloa crus-galli, 250 g ai/ha, Flood; 0 to 100 scale where 0 is no effect and 100 is complete control; read-out: Barnyardgrass plant response rating", "summary_of_the_method": "(§2)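 Response scored visually against untreated controls, 0 = no effect and 100 = complete control, 13–15 d after treatment in the greenhouse. Compounds added to paddy water held 3 cm above soil surface. Treatment given at 2-leaf stage.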"}, "[18]": {"test_system": "ducksalad (Heteranthera limosa)", "experiment": "Test B flooded paddy test", "conditions": "Heteranthera limosa, 250 g ai/ha, Flood; 0 to 100 scale where 0 is no effect and 100 is complete control; read-out: Ducksalad plant response rating", "summary_of_the_method": "as §2"}, "[19]": {"test_system": "rice (Oryra sativa)", "experiment": "Test B flooded paddy test", "conditions": "Oryza sativa, 250 g ai/ha, Flood; 0 to 100 scale where 0 is no effect and 100 is complete control; read-out: Rice plant response rating", "summary_of_the_method": "as §2"}, "[20]": {"test_system": "sedge, umbrella (small-flower umbrella sedge, Cyperus difformis)", "experiment": "Test B flooded paddy test", "conditions": "Cyperus difformis, 250 g ai/ha, Flood; 0 to 100 scale where 0 is no effect and 100 is complete control; read-out: Sedge, Umbrella plant response rating", "summary_of_the_method": "as §2"}, "[21]": {"conditions": "125 g ai/ha, preemergence, visual injury rating, approximately 10 d"}}}
{"smiles": "CSc1ccccc1NC(=O)[C@H]1C(=O)N(C)C[C@@H]1c1ccc(C)cc1", "note": "[Compound 1187]", "values": [{"measurement": "pest or weed control at 31 g/ha", "setting": "[1]; 31 g ai/ha, Preemergence", "value": 50, "unit": "%"}, {"measurement": "pest or weed control at 125 g/ha", "setting": "[1]; [21]", "value": 70, "unit": "%"}, {"measurement": "pest or weed control at 31 g/ha", "setting": "[2]; 31 g ai/ha, Preemergence", "value": 70, "unit": "%"}, {"measurement": "pest or weed control at 125 g/ha", "setting": "[2]; [21]", "value": 100, "unit": "%"}, {"measurement": "pest or weed control at 31 g/ha", "setting": "[3]; 31 g ai/ha, Preemergence", "value": 90, "unit": "%"}, {"measurement": "pest or weed control at 125 g/ha", "setting": "[3]; [21]", "value": 100, "unit": "%"}, {"measurement": "pest or weed control at 31 g/ha", "setting": "[4]; 31 g ai/ha, Preemergence", "value": 0, "unit": "%"}, {"measurement": "pest or weed control at 125 g/ha", "setting": "[4]; [21]", "value": 20, "unit": "%"}, {"measurement": "pest or weed control at 31 g/ha", "setting": "[5]; 31 g ai/ha, Preemergence", "value": 0, "unit": "%"}, {"measurement": "pest or weed control at 125 g/ha", "setting": "[5]; [21]", "value": 50, "unit": "%"}, {"measurement": "pest or weed control at 31 g/ha", "setting": "[6]; 31 g ai/ha, Preemergence", "value": 0, "unit": "%"}, {"measurement": "pest or weed control at 125 g/ha", "setting": "[6]; [21]", "value": 40, "unit": "%"}, {"measurement": "pest or weed control at 125 g/ha", "setting": "[7]; 125 g ai/ha, postemergence, visual injury vs untreated controls after approx. 10 d, 0 = no effect, 100 = complete control, read-out: Galium plant response rating (0 to 100 scale)", "value": 50, "unit": "%"}, {"measurement": "pest or weed control at 31 g/ha", "setting": "[7]; Postemergence, 31 g ai/ha, visual injury after approx. 10 d, 0 to 100 scale, 0 no effect, 100 complete control, read-out: Plant response rating, Galium", "value": 20, "unit": "%"}, {"measurement": "pest or weed control at 125 g/ha", "setting": "[8]; 125 g ai/ha, postemergence, visual injury vs untreated controls after approx. 10 d, 0 = no effect, 100 = complete control, read-out: Kochia plant response rating (0 to 100 scale)", "value": 20, "unit": "%"}, {"measurement": "pest or weed control at 31 g/ha", "setting": "[8]; Postemergence, 31 g ai/ha, visual injury after approx. 10 d, 0 to 100 scale, 0 no effect, 100 complete control, read-out: Plant response rating, Kochia", "value": 0, "unit": "%"}, {"measurement": "pest or weed control at 125 g/ha", "setting": "[9]; 125 g ai/ha, postemergence, visual injury vs untreated controls after approx. 10 d, 0 = no effect, 100 = complete control, read-out: Barnyardgrass plant response rating (0 to 100 scale)", "value": 100, "unit": "%"}, {"measurement": "pest or weed control at 31 g/ha", "setting": "[9]; Postemergence, 31 g ai/ha, visual injury after approx. 10 d, 0 to 100 scale, 0 no effect, 100 complete control, read-out: Plant response rating, Barnyardgrass", "value": 20, "unit": "%"}, {"measurement": "pest or weed control at 125 g/ha", "setting": "[10]; 125 g ai/ha, postemergence, visual injury vs untreated controls after approx. 10 d, 0 = no effect, 100 = complete control, read-out: Blackgrass plant response rating (0 to 100 scale)", "value": 40, "unit": "%"}, {"measurement": "pest or weed control at 31 g/ha", "setting": "[10]; Postemergence, 31 g ai/ha, visual injury after approx. 10 d, 0 to 100 scale, 0 no effect, 100 complete control, read-out: Plant response rating, Blackgrass", "value": 0, "unit": "%"}, {"measurement": "plant injury at 125 g/ha", "setting": "[11]; 125 g ai/ha, postemergence, visual injury vs untreated controls after approx. 10 d, 0 = no effect, 100 = complete control, read-out: Corn plant response rating (0 to 100 scale)", "value": 0, "unit": "%"}, {"measurement": "Corn plant response rating (crop injury, 0 = no effect, 100 = complete kill) at 31 g/ha", "setting": "[11]; Postemergence, 31 g ai/ha, visual injury after approx. 10 d, 0 to 100 scale, 0 no effect, 100 complete control", "value": 0, "unit": "%"}, {"measurement": "pest or weed control at 125 g/ha", "setting": "[12]; 125 g ai/ha, postemergence, visual injury vs untreated controls after approx. 10 d, 0 = no effect, 100 = complete control, read-out: Foxtail, Giant plant response rating (0 to 100 scale)", "value": 80, "unit": "%"}, {"measurement": "pest or weed control at 31 g/ha", "setting": "[12]; Postemergence, 31 g ai/ha, visual injury after approx. 10 d, 0 to 100 scale, 0 no effect, 100 complete control, read-out: Plant response rating, Foxtail, Giant", "value": 40, "unit": "%"}, {"measurement": "pest or weed control at 125 g/ha", "setting": "[13]", "value": 0, "unit": "%"}, {"measurement": "pest or weed control at 125 g/ha", "setting": "[14]", "value": 0, "unit": "%"}, {"measurement": "pest or weed control at 125 g/ha", "setting": "[15]", "value": 20, "unit": "%"}, {"measurement": "plant injury at 125 g/ha", "setting": "[16]", "value": 20, "unit": "%"}, {"measurement": "pest or weed control at 250 g/ha", "setting": "[17]", "value": 60, "unit": "%"}, {"measurement": "pest or weed control at 250 g/ha", "setting": "[18]", "value": 85, "unit": "%"}, {"measurement": "pest or weed control at 250 g/ha", "setting": "[19]", "value": 0, "unit": "%"}, {"measurement": "pest or weed control at 250 g/ha", "setting": "[20]", "value": 0, "unit": "%"}]}
